Read-outs that look alike come from different tables or passages of the source.

Data set [1] concerns early-stage (EG) Pf NF54 gametocytes. More on the design: method as in PMID 29866868. To be noted: early-stage gametocytes >95% stages II-III; 48 h incubation; ± SEM; cited from earlier work.
Data set [2] deals with late-stage (LG) Pf NF54 gametocytes. More on the design: method as in PMID 29866868. The note with it: late-stage gametocytes >90% stages IV-V; 48 h incubation; ± SEM; cited from earlier work.
On the set-up of data set [3]: method as in PMID 34097488. To be noted: cited from earlier work.
Data set [4] concerns asexual blood stages of Pf K1 (drug resistant). More on the design: method as in PMID 29866868, PMID 31998692. To be noted: cited from earlier work; for IC50: asexual blood stage Pf K1, multidrug resistant, SYBR Green I, ± SEM.
For a further data set, the system named is P. berghei sporozoites. The note with it: cited from earlier work; for Maximum inhibition % P. berghei sporozoites: ref S3; for IC50: luciferase-expressing P. berghei ANKA GFP-Luc-SMcon sporozoites in HepG2 cells, 48 h, ± SD, ref S3 (7).
Data set [5] deals with asexual blood stages of Pf NF54 (drug sensitive). More on the design: method as in PMID 29866868, PMID 31998692. To be noted: asexual blood stage Pf NF54, CQ sensitive; SYBR Green I; ± SEM; cited from earlier work.
The subject of data set [6] is asexual blood stages of Pf W2 (drug resistant). More on the design: method as in PMID 29866868, PMID 31998692. The note with it: cited from earlier work; for IC50: asexual blood stage Pf W2, multidrug resistant, SYBR Green I, ± SEM.
Data set [7] deals with type II tachyzoites (PRU-Luc-GFP). The note with it: sc 10 mg/kg/d for 8 days; cited from earlier work.
The next data set has as its system TM-C2B. More on the design: method as in ref S2. To be noted: [3H]-hypoxanthine assay; ref S2; read-out: Antimalarial activities IC50 TM-C2B; cited from earlier work.
A further data set concerns HepG2. The note with it: cited from earlier work; for SI = EC50 HepG2/IC50 P. berghei sporozoites: ref S3.
Data set [8] deals with TM91-C235 (CQ and MFQ resistant). Also noted: method as in ref S2. To be noted: [3H]-hypoxanthine assay; ref S2; read-out: Antimalarial activities IC50 TM91-C235; cited from earlier work.
A further data set relates to 7G8 (CQ resistant). Also noted: method as in ref S2. To be noted: [3H]-hypoxanthine assay; ref S2; read-out: Antimalarial activities IC50 7G8; cited from earlier work.
Data set [9] concerns TM93-C1088 (atovaquone and CQ resistant). Also noted: method as in ref S2. The note with it: [3H]-hypoxanthine assay; ref S2; read-out: Antimalarial activities IC50 TM93-C1088; cited from earlier work.
In another data set the test system is D6 (CQ sensitive). Also noted: method as in ref S2. To be noted: [3H]-hypoxanthine assay; ref S2; read-out: Antimalarial activities IC50 D6; cited from earlier work.
A short description of data set [10]: Cytotoxicity (LDH assay) against HepG2 cells. The data set is classed as cell-based. The note with it: human. The protocol: Cytotoxicity against mammalian hepatocellular carcinoma cells (HepG2 cells) was determined using the lactate dehydrogenase assay (LDH, Biovision Inc., Milpitas, CA, USA). […] Compound working solutions were prepared from 10 mM stock solutions (100% DMSO) in complete DMEM to a final DMSO (Sigma-Aldrich) conc. of <0.1% (vol/vol). […] Data analysis was performed using GraphPad Prism (version 6) software.

The next data set concerns W2 (CQ resistant). More on the design: method as in ref S2. To be noted: [3H]-hypoxanthine assay; ref S2; read-out: Antimalarial activities IC50 W2; cited from earlier work.
The subject of data set [11] is P. falciparum asexual blood stage artemisinin-resistant clone ARC08-22 (4G) carrying the PfKI3 C580Y mutation. Also noted: method as in ref S3. To be noted: ref S3, cited from earlier work.
In data set [12] the test system is P. falciparum asexual blood stage artemisinin-resistant clone PL08-009 (5C) carrying the PfKI3 C580Y mutation. More on the design: method as in ref S3. The note with it: ref S3, cited from earlier work.
The test system of data set [13] is fetal rat brain stem cells. The note with it: ref S4 (24), cited from earlier work.
A further data set relates to P. falciparum W2. Also noted: method as in ref S3. The note with it: [3H]-hypoxanthine assay; ref S3; cited from earlier work.
Data set [14] relates to Chinese hamster ovary (CHO) cells. More on the design: method as in PMID 29866868, PMID 31998692. The note with it: other cell lines including CHO cells; read-out: EC50 cytotoxicity; cited from earlier work.
[15] abbreviates: effect on the cytoskeleton on day 7.

One may read the IC50 as the concentration that inhibits the measured activity by half. One may read the Cmax as the highest concentration seen after dosing. Consider `CO[C@H]1O[C@@H]2O[C@@]3(C)CC[C@H]4[C@H](C)CC[C@@H]([C@H]1C)[C@@]24OO3` [Artemether 3, Artemether], for which the IC50 in data set [1] was 37.7 ± 2 nM; in data set [2], 136 ± 85.9 nM; in data set [4], 9 ± 2 nM; in the data set on P. berghei sporozoites, greater than 104 nM; in the data set on P. berghei sporozoites (listed as artemether 3), greater than 10000 nM; in data set [5], 1.86 ± 0.17 nM. The half-inhibitory concentration (IC50) in [6] is 7 ± 1 nM. Moreover, the “F% (oral bioavailability)” value in data set [3] was 2%. Moreover, the Cmax in data set [3] (oral administration, same dose, same murine model) is 600 nM. For the same compound, the “RI (resistance index) = IC50 K1/IC50 NF54” value in data set [4] is recorded as 4.8. In the data set on P. berghei sporozoites (at 10 µM), the “Maximum inhibition % P. berghei sporozoites” value is on record as 49.4%. Also, the “RI = IC50 W2/IC50 NF54” value in data set [6] is on record as 3.8.

Take `C[C@@H]1CC[C@H]2[C@@H](C)C(=O)O[C@@H]3O[C@@]4(C)CC[C@@H]1[C@]32OO4` [Artemisinin 1, Artemisinin, reference compound]: in data set [7], the “mice surviving the infection, acute phase” value is recorded as “all mice treated with artemisinin succumbed to infection”.

By EC50 is commonly meant the concentration giving half of the maximal effect. As for `O=C1C(O)=C([C@H]2CC[C@H](c3ccc(Cl)cc3)CC2)C(=O)c2ccccc21` [Atovaquone], the IC50 in the data set on TM-C2B is 31800 nM; in [8] it was 2.2 ± 0.7 nM; in the data set on 7G8 (CQ resistant), 3.1 ± 0.9 nM; in data set [9], 18800 nM; in the data set with P. berghei sporozoites it was 2.52 ± 0.997 nM. In the data set with HepG2, the 50% effective concentration (EC50) was greater than 250 nM. For the same compound, in the data set with HepG2, the “SI = EC50 HepG2/IC50 P. berghei sporozoites” value is greater than 100. In addition, the “Maximum inhibition % P. berghei sporozoites” value in the data set with P. berghei sporozoites (at 0.5 µM) is 94.85±2.76%.

Consider `CCN(CC)CCCC(C)Nc1ccnc2cc(Cl)ccc12` (stereo not shown) [Chloroquine], for which the IC50 is 95 ± 23 nM with TM-C2B; 70 ± 12 nM in [8]; 84 ± 18 nM in the data set with 7G8 (CQ resistant); 16 ± 2 nM in the data set on D6 (CQ sensitive); 154 ± 14 nM in [4]; 360 ± 38 nM in [9]. Further, the IC50 in [5] is 10 ± 3 nM; in the data set on W2 (CQ resistant), 195 ± 70 nM. In addition, it took 58400 nM to reach half-maximal inhibition in [10] (IC50 at 24 h).

The term IC90 denotes the concentration needed for an effect of 90%. On to `C[C@H]1[C@@H](O)O[C@@H]2O[C@@]3(C)CC[C@H]4[C@H](C)CC[C@@H]1[C@@]24OO3` [DHA 2, Dihydroartemisinin], for which the IC50 with TM-C2B was 2 ± 0.7 nM; in data set [11] (48 h life cycle, PfKI3 C580Y) it was 6.68 nM; in [1] it was 43 ± 3.9 nM; in data set [8] it was 2.3 ± 0.7 nM; in the data set with 7G8 (CQ resistant) it was 1.3 ± 0.2 nM; in data set [2] it was 33.7 ± 1.98 nM. For the same compound, the IC50 in the data set on D6 (CQ sensitive) was 1.7 ± 0.4 nM; in data set [12] (36 h life cycle, PfKI3 C580Y) it was 6.41 nM; in [4], 1.51 ± 0.33 nM; with P. falciparum W2, 4.58 nM; in [9], 1.4 ± 0.4 nM; in [5] it was 2.51 ± 0.19 nM. Also, the results for the IC50 (in data set [6]; in the data set with W2 (CQ resistant)) were 1.74 ± 0.22 nM and 2.2 ± 0.8 nM, respectively. The IC90 in data set [11] (48 h life cycle, PfKI3 C580Y) is 15.4 nM; in data set [12] (36 h life cycle, PfKI3 C580Y), 10.7 nM; in the data set with P. falciparum W2 it was 10.3 nM. Besides, the “RI = IC50 for ARC08-22(4G)/IC50 for W2” value in [11] is listed as 1.5. Also, in data set [12], the “RI = IC50 for PL08-09 (5C)/IC50 for W2” value is on record as 1.4. Further, the “RI (resistance index) = IC50 K1/IC50 NF54” value in data set [4] is reported as 0.6. For the same compound, the “ATP IC50” value in data set [13] (ATP levels 1 day after initial administration) was 0.08 µg/mL. In addition, in data set [13] (setting [15]), the “Neurofilaments IC50” value is 0.01 µg/mL. Besides, the “Neurofilaments NOEC” value in data set [13] (setting [15]) was less than 0.001 µg/mL. For the same compound, the “Viability IC50” value in data set [13] (neuron-specific enolase activity, 7 days exposure) is 5.0 µg/mL. The EC50 in data set [14] is 25200 nM. In addition, the “RI = IC50 W2/IC50 NF54” value in data set [6] is 0.7.

As for `OC(c1cc(C(F)(F)F)nc2c(C(F)(F)F)cccc12)C1CCCCN1` (stereo not shown) [Mefloquine], the IC50 is 130 ± 51 nM with TM-C2B, 107 ± 41 nM in data set [8], 5.4 ± 1.7 nM in the data set with 7G8 (CQ resistant) and 16 ± 5 nM in [9].

For the compound `CN(C)c1ccc2nc3ccc(=[N+](C)C)cc-3sc2c1` [Methylene Blue], the IC50 is 95 ± 11.3 nM in [1], 143 ± 16.7 nM in data set [2] and 5 ± 0.8 nM in [5].

Take `COc1ccc(C[C@H](N)C(=O)N[C@H]2[C@@H](O)[C@H](n3cnc4c(N(C)C)ncnc43)O[C@@H]2CO)cc1` [Puromycin, reference compound]: in the data set with HepG2, the EC50 was 117 nM and the “SI = EC50 HepG2/IC50 P. berghei sporozoites” value is recorded as 5.15. Besides, in the data set on P. berghei sporozoites (at 5 µM), the “Maximum inhibition % P. berghei sporozoites” value is reported as 110±4.24%. In the data set on P. berghei sporozoites, the IC50 is 22.7 ± 4.53 nM.

Values taken from publication PMC8704606, “The Artemiside-Artemisox-Artemisone-M1 Tetrad: Efficacies against Blood Stage P. falciparum Parasites, DMPK Properties, and the Case for Artemiside” (Pharmaceutics, 2021).
